This note sets out measurements from paper PMC6158189, “A pharmacological probe identifies cystathionine β-synthase as a new negative regulator for ferroptosis” (Cell Death & Disease, 2018).

One assay deals with HepG2 cells. As to the kind of experiment: cell viability (CellTiter 96 Aqueous One). The format is cell-based, human. Conditions: 24 h. The protocol: Fig. 4 CH004 arrests the cell cycle at the S phase. a CH004 reduces the cell viability of HEK293T and HepG2 cells. HEK293T or HepG2 cells were treated with indicated concentrations of CH004 for 24 h before the cell number was analyzed using the CellTiter96® Aqueous One Solution Cell Proliferation Assay (Promega, Materials and Methods). The means at each concentration of one representative experiment are shown as percentages of DMSO (control, 100%). Means ± SDs (n = 3). b Overexpression of hCBS or knock-down of hCBS counteracts the growth inhibition exerted by CH004 in HEK293T cells. Indicated HEK293T stable cell lines were treated with the CH004 or DMSO for 24 h. Then, the cell viability was quantified with the CellTiter 96® Aqueous One Solution Cell Proliferation Assay under the standard protocol (Promega). The means at each concentration are shown as percentages of their respective DMSO controls (100%). Means ± SDs (n = 3). The efficacy for CBS overexpression and knock-down in HEK293T cells was determined by Western blotting using an anti-CBS antibody (3E1, 1:2000; Abnova). c CH004 induces cell death in HEK293T and HepG2 cells. […] The means of percentages of dead cells (DMSO, 100%) from three independent samples are shown in d. Means ± SDs (n = 3). e, f Pharmacological inhibition or genetic knock-down of hCBS in HEK293T cells arrests the cell cycle at S phase. HEK293T cells were incubated with indicated compounds for 12 h, and the DNA content was quantified with propidium iodide to analyze the cell cycle distribution by flow cytometry (e). The cell cycle distributions for HEK293T-shNT and HEK293T-shCBS cells were accordingly analyzed and are shown in f. One representative diagram is shown for each condition. The mean percentages of various cell phases from three independent samples are shown in the respective right panels. Means ± SDs (n = 3). […]
Figure S15. […] Indicated HEK293T stable cell lines were treated with CH004 at a concentration of 10 µM for 24 h, and the cell viability was then measured using the CellTiter96® Aqueous One Solution Cell Proliferation Assay (Promega). […]

The target in assay [1] is T1, hCBS (GST-tagged CBS-413) (Homo sapiens, UniProt P35520).
T1 construct: hCBS-413 (a C-terminal truncated hCBS 1–413); made in house; host or cells: E. coli BL21
T1 sequence (P35520 1-413): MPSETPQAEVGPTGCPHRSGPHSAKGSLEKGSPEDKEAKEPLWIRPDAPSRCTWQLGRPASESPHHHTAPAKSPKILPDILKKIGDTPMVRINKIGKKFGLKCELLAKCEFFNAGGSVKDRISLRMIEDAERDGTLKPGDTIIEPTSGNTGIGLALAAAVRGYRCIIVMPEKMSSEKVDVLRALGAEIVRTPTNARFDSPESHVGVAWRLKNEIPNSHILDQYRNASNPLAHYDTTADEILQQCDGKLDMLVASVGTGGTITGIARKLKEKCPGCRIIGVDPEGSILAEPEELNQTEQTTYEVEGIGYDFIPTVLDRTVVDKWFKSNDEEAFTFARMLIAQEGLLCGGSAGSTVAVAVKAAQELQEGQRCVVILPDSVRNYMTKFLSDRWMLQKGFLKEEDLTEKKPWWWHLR
The experiment in a line: surface plasmon resonance (BIAcore T200). Format: binding. Conditions: 0.097–12.5 µM injected over hCBS-coated chip; read-out: KD (SPR). The protocol:
Surface Plasmon Resonance assays (SPR) with a BIAcore T200 (GE Healthcare, Uppsala, Sweden) were used to observe the direct interaction between inhibitors and hCBS. The SPR assay was performed in running buffer (1× PBS with 0.05% P20) and the purified GST-tagged CBS-413 (500 μg/mL) was immobilized onto a flow cell of a CM5 sensor chip using a GST antibody coupling kit in running buffer. The KD values were determined with the Biacore evaluation 3.1 software.
Figure S2. The mode of action of CH004 in inhibiting hCBS. […] After incubation with DMSO or CH004 at 10 μM for 40 min, hCBS (20 μM) was diluted 200-fold and the activity was measured according to the standard assay protocol (Materials and Methods). The data are presented as percentages of control (CTR; DMSO, 100%) and shown as means ± SDs (n = 5). The effects of 0.05 and 10 μM CH004 on hCBS (100 nM) without pre-incubation were defined as positive control (PC) and negative control (NC), respectively. (B) Inhibition of hCBS by CH004 as a function of PLP concentration with Cys (20 mM) together with Hcys (10 mM) as substrates (non-competitive inhibition constant αKi=15.2 ± 4.9 μM). […] The αKi or αKi’ values were calculated by using the non-linear fitting method for enzyme kinetics in GraphPad Prism 5. […] Dissociation constants for CH004 (KD) were calculated by using Biacore evaluation software (Materials and Methods).

In the case of `Cn1nc(Cc2ccccc2)nc2c(=O)n(C)c(=O)nc1-2` [CH004, 3-benzyl-1,6-dimethylpyrimido[5,4-e][1,2,4]triazine-5,7(1H,6H)-dione], the 50% inhibitory concentration (IC50) (usually the concentration that gives 50% inhibition) in the assay on HepG2 cells was about 11 µM; in the assay on HepG2 cells (Homo sapiens, HepG2, 24 h), 11.3 ± 1.3 µM. Besides, in assay [1], the Kd (commonly the free concentration of one partner at which half of the binding sites on the other are occupied at equilibrium, for simple one-to-one binding) was found to be 0.6 ± 0.3 µM.
